This is an account of results in patent publication US6294521A, “Phosphosugars and phosphosugar-containing compounds having anti-inflammatory activity” (Australian National University, priority 1996, dated 2001).

Assay [1] concerns mannose-6-phosphate receptor (insulin-like growth factor II or IGF-II receptor). Put plainly: Competitive binding assay: uptake of fluorescein-labelled polysaccharide (PPME) by U937 monocytes. The format is cell-based, human (U937 cell line). The settings on record: uptake of fluoresceinated-PPME (100 μg/ml), U937 cells, 60 minutes at 37° C.; FIG. 1. From the text: The novel mannoside 6-phosphates have similar affinities for the mannose-6-phosphate receptor (insulin-like growth factor II or IGF-II receptor) as the natural ligand, mannose-6-phosphate. In order to assess the binding of the novel mannoside 6-phosphates to the M6P receptor a competitive binding assay was used. In this assay a fluorescein-labelled, polysaccharide (PPME) which contains abundant mannose-6-phosphate groups, was used to detect uptake through the M6P receptor on human monocytes (U937 cell line). PPME was isolated and purified by the method of Bretthauer et al., (23) from the exopolysaccharide secreted by the yeast Pichia holstii. […]
The human monocyte cell line U937, which has a relatively high content of M6P receptors on its cell Surface (25), was obtained from the American Type Culture Collection (Rockville, Md.) and was maintained in RPMI 1640 medium (Gibco, Gaitersburg, Md.) supplemented with 2 mg/ml sodium bicarbonate, 0.2 mM glutamine, 30 μg/ml penicillin, 50 μg/ml streptamycin sulfate and 50 μg/ml neomycin sulfate and 10% foetal calf serum (FCS; Commonwealth Sarum Laboratories, Melbourne, Anstalia) at 37° C. […] Following incubations, the cells were washed twice with 10% FCS/RPMI and once with PBS and then fixed with 1% paraformaldehyde in PBS and analysed for fluorescence by flow cytometry. […]

Assay [2] can be described thus: Inhibition of passively-transferred EAE in rats, parenteral treatment. The class given is in vivo, Lewis rats. Conditions: for inhibition of development of disease (EAE), in words: 8 hourly subcutaneous doses for seven days, 220 mg/kg/day (mannose-6-phosphate), 200 mg/kg/day (others); for % with clinical signs of EAE: n=5; for % with clinical signs of EAE / Mean Maximum clinical score: 220 mg/kg/day (mannose 6-P) or 200 mg/kg/day (others); for Mean Maximum clinical score: controls 2.8 (saline), 3.3 (PEG 200). The protocol:
International Patent PCT/AU89/00350 identified several simple phosphosugars which had potent anti-inflammatory activity against cell-mediated inflammatory diseases such as EAE. The novel mannose 6-phosphate derivatives of the present invention have improved pharmacodynamic and pharmacokinetic properties. Thus, some of these agents are effective against EAE when they are injected either subcutaneously or intraperitoneally in rats, whereas the parent substance, mannose-6-phosphate is ineffective when administered in this manner.
In this Example, some typical novel mannoside 6-phosphates of the present invention were compared with mannose-6-phosphate for their ability to inhibit the development of […] in rats. In this experiment, according to the method of Panitch and McFarlin (18), donor Lewis rats were immunised with 50 μg myelin basic protein in complete Freund's adjuvant and 10-12 days later the spleens from these rats were removed and made into a single cell suspension. Thus, these cells, 2×10^6 ml^-1, were cultured in RPMI medium with 5% fetal calf serum, 5×10^-5 M 2-mercaptoethanol, 2 mM L-glutamine plus 30 μg/ml penicillin, 50 μg/ml streptamycin sulfate. Con A was added at 2 μg ml^-1 and cultures were incubated at 37° C. in a humidified atmosphere of 5% CO2, 7% O2 and the balance N2. Cells were harvested after 72 hours, washed once wit Hanks balanced salt solution, and 70×10^6 viable cells were then transferred to naive Lewis rat recipients via a lateral tail vein in order to induce EAE.

Assay [3] is described as follows: Delayed-type hypersensitivity (DTH) footpad swelling, sheep red blood cell antigen. The format is in vivo, CBA mice. The settings on record: Table 2, q.i.d. s.c., n=5, mean, 220 mg/kg/day (mannose 6-phosphate) or 200 mg/kg/day (others); for inhibition at 220 mg/kg: Mus musculus, Erythrocyte; for % swelling: control = 100.
Assay [4] in a line: Contact sensitivity to picryl chloride, ear swelling. The format is in vivo, CBA female mice. The settings on record: n=5; for inhibition at 330 mg/kg/day: Mus musculus, sc, Table 3, 6 injections s.c.; for % swelling: Table 3, 330 mg/kg/day, 6 injections s.c., control = 100. From the text: Contact sensitivity is a type of delayed hypersensitivity which ours following exposure to sensitising agents including low molecular weight reactive chemical entities such as dinitro chlorobenzene (DNCB) and picryl chloride (19,21) as well as the sensitising agents found in poison ivy and poison oak (19). In sensitised individuals, in those having previously been exposed to the sensitising agent, inflammatory leucocytes migrate from the blood stream into the area immediately beneath the affected tissue producing induration which is a cardinal characteristic of the delayed-type hypersensitivity reaction (21). Thus, contact sensitivity is a well recognised cell-mediated inflammatory response. In the experiment outlined below the novel mannoside 6-phosphates were compared with mannose-6-phosphate for their ability to inhibit contact sensitivity induced by picryl chloride.
In this experiment twenty CBA female mice were sensitised to picqyl chloride after the method of Enander et al., (22) by applying 200 μl of picryl chloride solution (0.5% in 95% ethanol) to an area (approximately 2 cm^2) of their shaved abdomens. Seven days following sensitisation these animals were divided into four groups of five mice which bad been treated with either mannose-6-phosphate (55 mg/kg), methyl mannoside 6-phosphate (330 mg/kg) or decyl mannoside 6-phosphate (55 mg/kg) or saline (control) 30 minutes before they were challenged by applying 100 μl of picryl chloride solution (1% in 95% ethanol) to both sides of their left ears. Their right ears (control) were treated with 100 μl of 95% ethanol. Three and one half hours following challenge a second injection of drug or saline was given and this was repeated four times at 4 hour intervals. Four hours following the last injection the mice were anaesthetised (ether) and the contact sensitivity determined by comparing the thickness of the picryl chloride treated ears with those of the control ears. As shown in Table 3 the novel mannoside phosphates inhibited accumulation of inflammatory cells in challenged ears more effectively than mannose-6-phosphate.

The conditions of assay [5]: experimental animals; EAE, adjuvant-induced arthritis, DTH; WO 90/01938; cited from earlier work.
Setting [6] is: Table 1, t.i.d. s.c., seven days.

Turning to `O=P(O)(O)OC[C@H]1OC(OCCCCCCOC2O[C@H](COP(=O)(O)O)[C@@H](O)[C@H](O)[C@@H]2O)[C@@H](O)[C@@H](O)[C@@H]1O` (stereo partly drawn) [1,6-hexamethyene di(D-mannoside 6-phosphate)], the “inhibition of binding of the natural ligand, in words” value in assay [1] is “effective inhibitor of binding”.

As for `O=P(O)(O)OC[C@H]1OC(OCCCCCCCCCCCCCCCCOC2O[C@H](COP(=O)(O)O)[C@@H](O)[C@H](O)[C@@H]2O)[C@@H](O)[C@@H](O)[C@@H]1O` (stereo partly drawn) [1,16-hexadecamethylene di(D-mannoside 6-phosphate)], in assay [2], the “inhibition of development of disease (EAE), in words” value (“inhibition of development of disease” for short) is recorded as “completely inhibited the development of disease”. Moreover, in assay [2] (setting [6]), the “% with clinical signs of EAE” value was 0% and the “Mean Maximum clinical score” value is recorded as 0.

By inhibition is commonly meant how much of the control response was suppressed. With `CCCCCCCCCCOC1O[C@H](COP(=O)(O)O)[C@@H](O)[C@H](O)[C@@H]1O` (stereo partly drawn) [decyl mannoside 6-P, Decyl D-mannoside 6-phosphate], in assay [3], testing at 220 mg/kg gave an inhibition of 70% and the “% swelling” value worked out at 30%. In addition, in assay [4], the inhibition at 330 mg/kg/day worked out at 77% and the “% swelling” value came to 23%. Also, the “inhibition of development of disease” value in assay [2] was “completely inhibited the development of disease”. In addition, in assay [2] (setting [6]), the “% with clinical signs of EAE” value is listed as 0% and the “Mean Maximum clinical score” value was determined as 0.

On to `CCCCCCCCCCCCCCCCOC1O[C@H](COP(=O)(O)O)[C@@H](O)[C@H](O)[C@@H]1O` (stereo partly drawn) [hexadecyl mannoside 6-P, hexadecyl D-mannoside 6-phosphate], for which, in assay [3], the inhibition at 220 mg/kg stood at 80% and the “% swelling” value amounted to 20%. Further, the “inhibition of development of disease” value in assay [2] is reported as “completely inhibited the development of disease”. Further, in assay [2] (setting [6]), the “% with clinical signs of EAE” value is listed as 0% and the “Mean Maximum clinical score” value worked out at 0.

For `O=P(O)(O)OC[C@H]1OC(O)[C@@H](O)[C@@H](O)[C@@H]1O` (stereo partly drawn) [mannose-6-phosphate, D-mannose-6-phosphate, reference compound], in assay [5], the “anti-inflammatory activity against cell-mediated inflammatory diseases, in words” value was “shown to have anti-inflammatory activity”. Also, in assay [3], at 220 mg/kg the inhibition was 20% and the “% swelling” value is given as 80%. Besides, in assay [4], the inhibition at 330 mg/kg/day came out at 17% and the “% swelling” value is on record as 83%. In assay [2], the “inhibition of development of disease” value is on record as “ineffective in inhibiting development of disease symptoms”. In assay [2] (Table 1, t.i.d. s.c., seven days, 220 mg/kg/day, saline control 4.1), the “Mean Duration” value is on record as 4.0 days. Further, the “Mean day of onset” value in assay [2] (Table 1, t.i.d. s.c., seven days, 220 mg/kg/day, saline control 5.2) came out at 5.2 days. For the same compound, in assay [2] (setting [6]), the “% with clinical signs of EAE” value is recorded as 100% and the “Mean Maximum clinical score” value was determined as 2.8. Further, the “effectiveness against EAE, in words” value in assay [2] (injected either subcutaneously or intraperitoneally in rats) was “ineffective”.

For the compound `CO[C@H]1O[C@H](COP(=O)(O)O)[C@@H](O)[C@H](O)[C@@H]1O` [methyl mannoside 6-P, Methyl α-D-mannoside 6-phosphate], in assay [4], the inhibition at 330 mg/kg/day turned out to be 50% and the “% swelling” value is given as 50%.
